Data on two molecules can be found in patent US20250248954A1, “PHARMACEUTICAL COMPOSITION FOR PREVENTING OR TREATING DIABETIC STROKE, CONTAINING RAGE ANTAGONIST AND AGE SCAVENGER” (AJOU UNIVERSITY INDUSTRY-ACADEMIC COOPERATION FOUNDATION, priority 2022, published 2025).

Each structure is given as a SMILES string.

Common to all, as to format: in vivo, SD rats
Experiment [1] concerns experimental animal model of diabetes mellitus (DM) subjected to tMCAO. Put plainly: Diabetic (STZ, 34 days) rat 30-minute tMCAO model: body weight, blood glucose, glycated hemoglobin, brain injury by MRI. Particulars: diabetic rats, vs DM-vehicle. How it is done: (§1) Specifically, these were carried out as follows. To produce an experimental animal model of diabetes mellitus (DM), 7-week-old male SD rats were fasted for 16 hours. Thereafter, streptozotocin (STZ) was administered to the rats, and on day 3, blood glucose levels were measured. The rats were divided into a vehicle group and an aminoguanidine (AG) group, which had similar average blood glucose levels, and were maintained for 34 days. The AG group was orally administered 100 mg/kg of aminoguanidine once a day starting from day 4 after diabetes induction, and was finally administered aminoguanidine within 30 minutes after MCAO. On day 1 after MCAO, the mNSS test shown in FIG. 9 was performed, and then cerebral infarction was checked using an animal MRI system. Next, the rats were sacrificed, and plasma and brain tissue were collected and analyzed. For comparison, protein expression in the brain tissue from normal rats (sham) was used as a control. The impact on diabetes was evaluated by checking changes in body weight and blood glucose levels once a week after diabetes induction and checking final glycated hemoglobin levels after MCAO. To evaluate brain injury, the volume of cerebral infarction was determined using an animal MRI system.

The next experiment deals with MGH1. Put plainly: MGH1 expression in brain tissue of diabetic tMCAO groups by immunohistochemical staining and Western blot. The conditions noted are these: diabetic rats, day 1 after MCAO; 100 mg/kg orally once a day from day 4; vs vehicle group; FIG. 8. How it is done:
as §1, with “control.” for “control. The impact on diabetes was evaluated by checking changes in body weight and blood glucose levels once a week after diabetes induction and checking final glycated hemoglobin levels after MCAO. To evaluate brain injury, the volume of cerebral infarction was determined using an animal MRI system.”
Day 1 after MCAO, the expression levels of MGH1 in the brain tissues from the diabetic groups were analyzed by immunohistochemical staining and Western blot analysis.

Experiment [2] concerns neuronal cell death in the cerebral cortex. Briefly: Cresyl violet staining of cerebral cortex, normoglycemic tMCAO group. Particulars: NG, 2 h MCAO; 10 mg/kg i.p.; vs sham group; FIG. 4. How it is done:
Specifically, these were carried out as follows. To produce an experimental animal model, 7-week-old male SD rats were fasted for 16 hours. Thereafter, streptozotocin (STZ) was administered to the rats, and after 3 days, fasting blood glucose levels were measured in the tail vein, and only animals with a blood glucose level of 300 mg/dl or more were used as a hyperglycemic model. A cerebral ischemia model was produced by subjecting the produced hyperglycemic model or a normoglycemic model to temporary middle cerebral artery occlusion (tMCAO). For MCAO, a coated suture was inserted through the right external carotid artery into the internal carotid artery, and inserted approximately 19 mm up to the middle cerebral artery (MCA). 30 minutes or 2 hours after insertion, the coated suture was removed, and a reperfusion model was used as a cerebral ischemia model. Since cerebral infarction was rarely found in normoglycemic animals after 30-minute MCAO, a model subjected to 2 hours of MCAO was used and compared with the hyperglycemic group. […] In addition, rats were sacrificed 3 days after MCAO, and plasma and brain tissue were collected and analyzed.
The degree of neuronal cell death in the cerebral cortex from each experimental group was analyzed using cresyl violet staining. […]

Experiment [3] deals with neuronal cell death, astrocytes and microglia, AGE and MGH1 in the cerebral cortex. Put plainly: Cresyl violet and immunohistochemical staining of cerebral cortex, hyperglycemic tMCAO group. The conditions noted are these: HG, 30 min MCAO; 10 mg/kg i.p.; FIG. 4. How it is done: (§2) Specifically, these were carried out as follows. To produce an experimental animal model, 7-week-old male SD rats were fasted for 16 hours. Thereafter, streptozotocin (STZ) was administered to the rats, and after 3 days, fasting blood glucose levels were measured in the tail vein, and only animals with a blood glucose level of 300 mg/dl or more were used as a hyperglycemic model. A cerebral ischemia model was produced by subjecting the produced hyperglycemic model or a normoglycemic model to temporary middle cerebral artery occlusion (tMCAO). For MCAO, a coated suture was inserted through the right external carotid artery into the internal carotid artery, and inserted approximately 19 mm up to the middle cerebral artery (MCA). 30 minutes or 2 hours after insertion, the coated suture was removed, and a reperfusion model was used as a cerebral ischemia model. Since cerebral infarction was rarely found in normoglycemic animals after 30-minute MCAO, a model subjected to 2 hours of MCAO was used and compared with the hyperglycemic group. The normoglycemic group (NG), after 2 hours of MCAO, was divided into a vehicle group and an FPS-ZM1 group and used in the experiment. The hyperglycemic group (HG), after 30 minutes of MCAO, was divided into a vehicle group and an FPS-ZM1 group and used in the experiment. The FPS-ZM1 group in each of the normoglycemic group and the hyperglycemic group was injected intraperitoneally with 10 mg/kg of FPS-ZM1 within 5 minutes after MCAO reperfusion and injected with FPS-ZM1 once a day. After surgery, the mNSS (modified neurological severity score) test shown in FIG. 9 and weight measurement were conducted at a certain time every day to check body weight changes and neurobehavioral deficits of the experimental animals. In addition, rats were sacrificed 3 days after MCAO, and plasma and brain tissue were collected and analyzed.
The degree of neuronal cell death in the cerebral cortex from each experimental group was analyzed using cresyl violet staining. In addition, immunohistochemistry was used to analyze the level of activity of astrocytes and microglia and the expression levels of AGE and MGH1 in the cells.

Experiment [4] concerns RAGE, AGE, methylglyoxal (MGH1), GFAP. Briefly: Western blot analysis of protein expression in brain tissue, hyperglycemic tMCAO group. Particulars: HG, 30 min MCAO, 10 mg/kg i.p. How it is done: as §2, with “Since cerebral infarction was rarely found in normoglycemic animals after 30-minute MCAO, a model subjected to 2 hours of MCAO was used and compared with the hyperglycemic group.” left out, “analyzed. After all experiments were completed, the protein expression levels of RAGE, AGE, and methylglyoxal (MGH1) in the brain tissue from each experimental group were analyzed by Western blot analysis. For comparison, protein expression in the brain tissue from normal rats (sham) was used as a control.” for “analyzed.”

Experiment [5] relates to ZO-1, occludin, claudin, Tie-2, VEGF, Ang-1, MMP-2, MMP-9. Put plainly: Real-time PCR of vascular-related factors in brain tissue after tMCAO. The conditions noted are these: 10 mg/kg i.p., FIG. 5. How it is done:
Specifically, these were carried out as follows. To produce an experimental animal model, 7-week-old male SD rats were fasted for 16 hours. Thereafter, streptozotocin (STZ) was administered to the rats, and after 3 days, fasting blood glucose levels were measured in the tail vein, and only animals with a blood glucose level of 300 mg/dl or more were used as a hyperglycemic model. A cerebral ischemia model was produced by subjecting the produced hyperglycemic model or a normoglycemic model to temporary middle cerebral artery occlusion (tMCAO). For MCAO, a coated suture was inserted through the right external carotid artery into the internal carotid artery, and inserted approximately 19 mm up to the middle cerebral artery (MCA). 30 minutes or 2 hours after insertion, the coated suture was removed, and a reperfusion model was used as a cerebral ischemia model. […] The normoglycemic group (NG), after 2 hours of MCAO, was divided into a vehicle group and an FPS-ZM1 group and used in the experiment. The hyperglycemic group (HG), after 30 minutes of MCAO, was divided into a vehicle group and an FPS-ZM1 group and used in the experiment. […] In addition, rats were sacrificed 3 days after MCAO, and plasma and brain tissue were collected and analyzed.

For experiment [6], the system named is hyperglycemic model subjected to temporary middle cerebral artery occlusion (tMCAO). Put plainly: Hyperglycemic (STZ) rat 30-minute tMCAO cerebral ischemia model: body weight, mNSS test, brain injury (cresyl violet). The conditions noted are these: 30 min MCAO, 10 mg/kg i.p. once a day. How it is done:
as §2, with “Since cerebral infarction was rarely found in normoglycemic animals after 30-minute MCAO, a model subjected to 2 hours of MCAO was used and compared with the hyperglycemic group.” left out
(§3) After performing MCAO, body weight measurement and the mNSS test were performed at the same time every day.
(§4) To evaluate brain injury, the volume of cerebral infarction was determined by staining the entire brain with cresyl violet at 1-mm intervals.

Experiment [7] concerns RAGE, AGE, methylglyoxal (MGH1). Put plainly: Western blot analysis of protein expression in brain tissue, normoglycemic tMCAO group. The conditions noted are these: NG, 2 h MCAO, 10 mg/kg i.p. Here is the method: as §2, with “Since cerebral infarction was rarely found in normoglycemic animals after 30-minute MCAO, a model subjected to 2 hours of MCAO was used and compared with the hyperglycemic group.” left out, “analyzed. After all experiments were completed, the protein expression levels of RAGE, AGE, and methylglyoxal (MGH1) in the brain tissue from each experimental group were analyzed by Western blot analysis. For comparison, protein expression in the brain tissue from normal rats (sham) was used as a control.” for “analyzed.”

In experiment [8] the test system is normoglycemic model subjected to temporary middle cerebral artery occlusion (tMCAO). Put plainly: Normoglycemic rat 2-hour tMCAO cerebral ischemia model: body weight, brain injury (cresyl violet). The conditions noted are these: 2 h MCAO, 10 mg/kg i.p. once a day. How it is done:
as §2, with “Since cerebral infarction was rarely found in normoglycemic animals after 30-minute MCAO, a model subjected to 2 hours of MCAO was used and compared with the hyperglycemic group.” left out
as §3, §4

The mark [9] stands for this setting: HG, 3 days after MCAO, vs HG-vehicle, cresyl violet.
The mark [10] stands for this setting: NG, 3 days after MCAO, vs NG-vehicle.

With `N=C(N)NN` [AG, aminoguanidine], the “brain injury (volume of cerebral infarction, animal MRI)” value in [1] (30 min MCAO on day 34, 100 mg/kg orally once a day from day 4, day 1 after MCAO) is “no significant difference”. Besides, the glycated hemoglobin level result in experiment [1] (100 mg/kg orally once a day from day 4, after MCAO) is on record as “no significant difference”. Besides, the blood glucose level entry in experiment [1] (100 mg/kg orally once a day from day 4) is “no significant difference”. Moreover, the “change in body weight” value in [1] (100 mg/kg orally once a day from day 4 after diabetes induction) was “not significantly different”. Moreover, in the experiment on MGH1, the “expression level of MGH1 in brain tissue (immunohistochemical staining and Western blot)” value was “decreased”.
As to `O=C(c1ccc(Cl)cc1)N(Cc1ccccc1)C1CCCCC1` [FPS-ZM1], the “degree of neuronal cell death in cerebral cortex (cresyl violet staining)” value in experiment [2] is “higher”. Moreover, in experiment [3], the “activated astrocytes (GFAP staining)” value is listed as “less observed”, the “intracellular AGE staining” value is “less observed”, the “intracellular MGH1 staining” value is given as “less observed” and the “neuronal cell death / number of live cells in cerebral cortex (cresyl violet staining)” value is reported as “the number of live cells was larger”. Further, in experiment [4] (between all groups, FIG. 3), the “MGH1 protein expression level in brain tissue (Western blot)” value was “no significant difference”. In experiment [4] (vs HG-vehicle), the “AGE expression level in brain tissue (Western blot)” value is recorded as “significantly lower” and the “GFAP expression level in brain tissue (Western blot)” value was “significantly lower”. The “expression level of MMP-9 in brain tissue (real-time PCR)” value in experiment [5] (HG, 30 min MCAO, vs HG-vehicle) was “significantly decreased in the HG-FPS-ZM1 group to a level similar to that in the sham group”. In [5] (HG-FPS-ZM1 group compared to NG-FPS-ZM1 group), the “expression levels of most vascular-related factors in brain tissue (real-time PCR)” value was “increased in the HG-FPS-ZM1 group compared to the NG-FPS-ZM1 group, but there was no significant difference between the groups”. For the same molecule, in experiment [6] (setting [9]), the “cross-sectional area of injury” value is reported as “significantly decreased” and the “volume of actual injury” value is listed as “more significant in the HG-FPS-ZM1 group than in the HG-vehicle group”. Besides, the mNSS score entry in [6] (HG, vs the other MCAO groups, FIG. 1C) was “significantly lower than those in the other groups”. For the same molecule, the “body weight change after MCAO” value in [6] (hyperglycemic group (HG), vs initial body weight before MCAO, FIG. 1B) is “no reduction in body weight”. Further, the “MGH1 protein expression level in brain tissue (Western blot)” value in experiment [7] (between all groups, FIG. 3) is given as “no significant difference”. Besides, in [7] (vs NG-vehicle), the “AGE expression level in brain tissue (Western blot)” value is reported as “no significant difference” and the “RAGE expression level in brain tissue (Western blot)” value is listed as “no significant difference”. For the same molecule, in experiment [8] (setting [10]), the “cross-sectional area of injury” value is recorded as “difficult through the area photographs to confirm the degree of reduction” and the overall injury volume result is given as “decreased slightly in the NG-FPS-ZM1 group, but this decrease was not significant”. Also, the “body weight change after MCAO” value in experiment [8] (normoglycemic group (NG), vs initial body weight before MCAO, FIG. 1B) is recorded as “decreased compared to the initial body weight”.
